Read-outs that look alike come from different tables or passages of the source.
Legend:
[1] = system: MYC protein expression in MCF-7 breast cancer cells; assay: Western blotting of MYC protein level in MCF-7 cells; format: cell-based, human
Procedure, shortened: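 MCF-7 cells were exposed to compounds at 0.5, 1, 2 and 4 μM for 24 hours at 37° C. MYC was detected by immunoblot with ECL, using rabbit anti-MYC (1:1000) and anti-GAPDH (1:2000) as loading control.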

NCI-60 cancer cell lines = assay: NCI-60 cancer cell line drug screen (GI50, MGM); format: cell-based, human; settings: for GI50: read-out: Antiproliferative Activities [GI50 (μM)]
Procedure: Cancer cells were incubated with the test compounds at five concentrations ranging from 100 μM to 10 nM for 48 h. […] The approximate average of GI50 values across the entire panel of NCI-60 cancer cell lines for each compound was recorded as the MGM value.

human topoisomerase I = target: T1, human topoisomerase I (Homo sapiens, UniProt P11387); settings: relative topoisomerase I inhibition levels, previously determined, six levels (0 - 5, +++++ = 5); cited from earlier work
T1 sequence (P11387 1-765): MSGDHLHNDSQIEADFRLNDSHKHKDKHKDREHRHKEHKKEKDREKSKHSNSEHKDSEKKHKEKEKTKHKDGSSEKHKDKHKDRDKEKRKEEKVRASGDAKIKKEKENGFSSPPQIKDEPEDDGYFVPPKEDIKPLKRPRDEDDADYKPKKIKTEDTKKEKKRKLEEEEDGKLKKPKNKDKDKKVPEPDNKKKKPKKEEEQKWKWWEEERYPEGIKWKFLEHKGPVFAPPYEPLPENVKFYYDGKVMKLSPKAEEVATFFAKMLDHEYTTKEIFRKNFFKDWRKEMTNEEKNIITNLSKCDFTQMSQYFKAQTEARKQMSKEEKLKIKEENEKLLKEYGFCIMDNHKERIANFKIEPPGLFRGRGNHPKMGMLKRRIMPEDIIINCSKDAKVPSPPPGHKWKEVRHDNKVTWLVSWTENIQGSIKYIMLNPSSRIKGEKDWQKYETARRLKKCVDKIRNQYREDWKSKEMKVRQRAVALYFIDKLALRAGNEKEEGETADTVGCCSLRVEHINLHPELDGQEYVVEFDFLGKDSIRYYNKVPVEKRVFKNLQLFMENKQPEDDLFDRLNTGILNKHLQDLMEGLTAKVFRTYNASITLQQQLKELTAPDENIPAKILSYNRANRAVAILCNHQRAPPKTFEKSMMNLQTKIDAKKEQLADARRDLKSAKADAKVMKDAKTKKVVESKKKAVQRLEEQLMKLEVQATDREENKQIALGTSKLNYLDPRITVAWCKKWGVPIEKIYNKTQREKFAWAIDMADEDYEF

COc1cnc2c(c1)C(=O)c1c-2n(CCCNC(C)C)c(=O)c2cc(F)ccc12 [Compound 5]
minimal effective concentration ([1]; Homo sapiens, MCF7, western blotting, MCF-7 cells, 0.5, 1, 2, and 4 μM, 24 hours, read-out: MYC Inhibition): 0.5 to 1 µM | MYC-inhibitory effect (MYC protein, western blot) ([1]; MCF-7, 0.5, 1, 2, and 4 μM, 24 h): clear MYC-inhibitory effect | GI50 (NCI-60 cancer cell lines; Homo sapiens, 786-0, Renal Cancer, 786-0): 0.12 µM | GI50 (NCI-60 cancer cell lines; Homo sapiens, A498, Renal Cancer, A498): 0.2 µM | GI50 (NCI-60 cancer cell lines; Homo sapiens, A549, Non-Small Cell Lung Cancer, A549/ATCC): 0.07 µM | GI50 (NCI-60 cancer cell lines; Homo sapiens, ACHN, Renal Cancer, ACHN): 0.06 µM | GI50 (NCI-60 cancer cell lines; Homo sapiens, BT-549, Breast Cancer, BT-549): 0.66 µM | GI50 (NCI-60 cancer cell lines; Homo sapiens, CCRF-CEM, Leukemia, CCRF-CEM): 0.11 µM | GI50 (NCI-60 cancer cell lines; Homo sapiens, COLO 205, Colon Cancer, COLO 205): 0.09 µM | GI50 (NCI-60 cancer cell lines; Homo sapiens, DU-145, Prostate Cancer, DU-145): 0.21 µM | GI50 (NCI-60 cancer cell lines; Homo sapiens, EKVX, Non-Small Cell Lung Cancer, EKVX): 0.3 µM | GI50 (NCI-60 cancer cell lines; Homo sapiens, HCC 2998, Colon Cancer, HCC-2998): 0.4 µM | GI50 (NCI-60 cancer cell lines; Homo sapiens, HCT-15, Colon Cancer, HCT-15): 0.16 µM | GI50 (NCI-60 cancer cell lines; Homo sapiens, HCT-116, Colon Cancer, HCT-116): 0.09 µM | GI50 (NCI-60 cancer cell lines; Homo sapiens, HL-60, Leukemia, HL-60(TB)): 0.16 µM | GI50 (NCI-60 cancer cell lines; Homo sapiens, HOP-62, Non-Small Cell Lung Cancer, HOP-62): 0.11 µM | GI50 (NCI-60 cancer cell lines; Homo sapiens, HOP-92, Non-Small Cell Lung Cancer, HOP-92): 0.28 µM | GI50 (NCI-60 cancer cell lines; Homo sapiens, HT-29, Colon Cancer, HT29): 0.07 µM | GI50 (NCI-60 cancer cell lines; Homo sapiens, Hs-578T, Breast Cancer, HS 578T): 0.75 µM | GI50 (NCI-60 cancer cell lines; Homo sapiens, IGROV-1, Ovarian Cancer, IGROV1): 0.21 µM | GI50 (NCI-60 cancer cell lines; Homo sapiens, K562, Leukemia, K-562): 0.13 µM | GI50 (NCI-60 cancer cell lines; Homo sapiens, KM12, Colon Cancer, KM12): 0.17 µM | GI50 (NCI-60 cancer cell lines; Homo sapiens, LOX IMVI, Melanoma, LOX IMVI): 0.11 µM | GI50 (NCI-60 cancer cell lines; Homo sapiens, Leukemia, SR): 0.08 µM | GI50 (NCI-60 cancer cell lines; Homo sapiens, MCF7, Breast Cancer, MCF7): 0.03 µM | GI50 (NCI-60 cancer cell lines; Homo sapiens, MDA-MB-231, Breast Cancer, MDA-MB-231/ATCC): 0.4 µM | GI50 (NCI-60 cancer cell lines; Homo sapiens, MDA-MB-435, Melanoma, MDA-MB-435): 0.31 µM | GI50 (NCI-60 cancer cell lines; Homo sapiens, MDA-MB-468, Breast Cancer, MDA-MB-468): 0.23 µM | GI50 (NCI-60 cancer cell lines; Homo sapiens, MOLT-4, Leukemia, MOLT-4): 0.04 µM | GI50 (NCI-60 cancer cell lines; Homo sapiens, Malme-3M, Melanoma, MALME-3M): 0.2 µM | GI50 (NCI-60 cancer cell lines; Homo sapiens, Melanoma, M14): 0.23 µM | GI50 (NCI-60 cancer cell lines; Homo sapiens, NCI-H23, Non-Small Cell Lung Cancer, NCI-H23): 0.18 µM | GI50 (NCI-60 cancer cell lines; Homo sapiens, NCI-H226, Non-Small Cell Lung Cancer, NCI-H226): 0.15 µM | GI50 (NCI-60 cancer cell lines; Homo sapiens, NCI-H322M, Non-Small Cell Lung Cancer, NCI-H322M): 0.32 µM | GI50 (NCI-60 cancer cell lines; Homo sapiens, NCI-H460, Non-Small Cell Lung Cancer, NCI-H460): 0.04 µM | GI50 (NCI-60 cancer cell lines; Homo sapiens, NCI-H522, Non-Small Cell Lung Cancer, NCI-H522): 0.04 µM | GI50 (NCI-60 cancer cell lines; Homo sapiens, OVCAR-3, Ovarian Cancer, OVCAR-3): 0.19 µM | GI50 (NCI-60 cancer cell lines; Homo sapiens, OVCAR-4, Ovarian Cancer, OVCAR-4): 0.3 µM | GI50 (NCI-60 cancer cell lines; Homo sapiens, OVCAR-5, Ovarian Cancer, OVCAR-5): 0.28 µM | GI50 (NCI-60 cancer cell lines; Homo sapiens, OVCAR-8, Ovarian Cancer, OVCAR-8): 0.14 µM | GI50 (NCI-60 cancer cell lines; Homo sapiens, Ovarian Cancer, NCl/ADR-RES): 0.23 µM | GI50 (NCI-60 cancer cell lines; Homo sapiens, Prostate Cancer, PC-3): 0.28 µM | GI50 (NCI-60 cancer cell lines; Homo sapiens, RPMI-8226, Leukemia, RPMI-8226): 0.15 µM | GI50 (NCI-60 cancer cell lines; Homo sapiens, RXF 393, Renal Cancer, RXF 393): 0.23 µM | GI50 (NCI-60 cancer cell lines; Homo sapiens, Renal Cancer, U0-31): 0.08 µM | GI50 (NCI-60 cancer cell lines; Homo sapiens, SF-268, CNS Cancer, SF-268): 0.21 µM | GI50 (NCI-60 cancer cell lines; Homo sapiens, SF-295, CNS Cancer, SF-295): 0.09 µM | GI50 (NCI-60 cancer cell lines; Homo sapiens, SF-539, CNS Cancer, SF-539): 0.25 µM | GI50 (NCI-60 cancer cell lines; Homo sapiens, SK-MEL-2, Melanoma, SK-MEL-2): 0.51 µM | GI50 (NCI-60 cancer cell lines; Homo sapiens, SK-MEL-5, Melanoma, SK-MEL-5): 0.16 µM | GI50 (NCI-60 cancer cell lines; Homo sapiens, SK-MEL-28, Melanoma, SK-MEL-28): 0.94 µM | GI50 (NCI-60 cancer cell lines; Homo sapiens, SK-OV-3, Ovarian Cancer, SK-OV-3): 0.22 µM | GI50 (NCI-60 cancer cell lines; Homo sapiens, SN12C, Renal Cancer, SN12C): 0.16 µM | GI50 (NCI-60 cancer cell lines; Homo sapiens, SNB-19, CNS Cancer, SNB-19): 0.18 µM | GI50 (NCI-60 cancer cell lines; Homo sapiens, SNB-75, CNS Cancer, SNB-75): 0.22 µM | GI50 (NCI-60 cancer cell lines; Homo sapiens, SW-620, Colon Cancer, SW-620): 0.12 µM | GI50 (NCI-60 cancer cell lines; Homo sapiens, T47D, Breast Cancer, T-47D): 0.08 µM | GI50 (NCI-60 cancer cell lines; Homo sapiens, TK-10, Renal Cancer, TK-10): 0.18 µM | GI50 (NCI-60 cancer cell lines; Homo sapiens, U-251, CNS Cancer, U251): 0.08 µM | GI50 (NCI-60 cancer cell lines; Homo sapiens, UACC-62, Melanoma, UACC-62): 0.27 µM | GI50 (NCI-60 cancer cell lines; Homo sapiens, UACC-257, Melanoma, UACC-257): 0.47 µM | mean GI50 across NCI-60 panel (MGM) (NCI-60 cancer cell lines; Homo sapiens, average of GI50 values across the entire panel of NCI-60 cancer cell lines): 0.165 µM | anticancer activity (GI50 profile) in words (NCI-60 cancer cell lines; NCI-60 panel): more potent anticancer activities compared to compounds 4 and 20 | Top1 Inhibiton (human topoisomerase I): ++ (medium inhibition, ++, MYC expression inhibited at 2.0 μM, or no clear dose-dependent MYC inhibition)

— US20210382058A1, “PATIENT SELECTION FOR TREATMENT OF MYC POSITIVE CANCERS WITH INDENOISOQUINOLINES” (Purdue Research Foundation, priority 2020, published 2021)
